Tested on: Sprague-Dawley male rats
Test: Treadmill test using young rat (maximum running time)
Type: in vivo
Conditions: reduced coenzyme Q10 100 mg/kg, lipoic acid 30 mg/kg; for extension of the maximum running time (after the sample administration relative to before the administration), Average: Sprague-Dawley male rats 7 to 10 week old, oral in 0.5% CMC-Na, before vs three hours after administration; for extension of the maximum running time, significance: single agents: before vs after administration, combination: compared to control group, oral, three hours after administration
Experimental: Using Sprague-Dawley male rats (7 to 10 week old, n=20), anti-fatigue effects brought about by reduced coenzyme Q10 alone (about 2% of oxidized coenzyme Q10 included), lipoic acid alone, and combination use of reduced coenzyme Q10 and lipoic acid were evaluated with a treadmill. In the test, rats were run at a speed of 10 m/min using a treadmill apparatus (model NK-73-4 made by Natume Seisakusho Co., Ltd.), and the speed was increased stepwise, by 5 m/min every 3 min, and the time when the rats became unable to run (maximum running time) was measured.
As substances to be tested, 0.5% sodium carboxymethylcellulose (CMC-Na) aqueous solutions of reduced coenzyme Q10 (about 2% oxidized coenzyme Q10 included) or lipoic acid (α-lipoic acid (manufactured by Tokyo Chemical Industry Co., Ltd.)) were each prepared and the solutions were orally administered to rats at a dose of 100 mg/kg for reduced coenzyme Q10 or at a dose of 30 mg/kg for lipoic acid. Rats were divided into four groups of a solvent administered group, reduced coenzyme Q10 only administered group, lipoic acid only administered group, and a reduced coenzyme Q10 and lipoic acid combined group (reduced coenzyme Q10 and lipoic acid were administered almost simultaneously). The maximum running time was measured before and three hours after the administration and an extension of the maximum running time (after the sample administration relative to before the administration) was calculated. A 0.5% CMC-Na aqueous solution was administered to the control group.

| Compound | extension of the maximum running time (after the sample administration relative to before the administration), Average [s] | extension of the maximum running time, significance |
| --- | --- | --- |
| O=C(O)CCCCC1CCSS1 (stereo not shown) [Lipoic acid, 1,2-dithioran-3-pentanoic acid] | 7.3 | no significant extension |
| COc1c(O)c(C)c(C/C=C(\C)CC/C=C(\C)CC/C=C(\C)CC/C=C(\C)CC/C=C(\C)CC/C=C(\C)CC/C=C(\C)CC/C=C(\C)CC/C=C(\C)CCC=C(C)C)c(O)c1OC [Reduced coenzyme Q10, reduced coenzyme Q10] | 17.5 | no significant extension |

From patent US20090226408A1, “ANTI-FATIGUE COMPOSITION” (KANEKA CORPORATION, priority 2005, published 2009)
